Measurements reported in publication PMC12670405, “Second-Generation AURKA-Targeting PROTACs: Structural Optimization toward in Vivo Degradation in Neuroblastoma” (Journal of Medicinal Chemistry, 2025).

How the values were obtained:
Assay in all cases: KINOMEscan scanMAX
Assay type in all cases: binding
Conditions in all cases: read-out: Percent Control
PKAC-beta = target: T1, PKAC-beta (Homo sapiens, UniProt P22694)
T1 construct: purchased Eurofins Discovery (DiscoverX KINOMEscan scanMAX)
Method: (§1) The kinome-wide binding assay was performed by Eurofins Discovery using the scanMAX screening platform. More information can be found on the Eurofins Discovery Web site.

BRAF = target: T2, BRAF (Homo sapiens, UniProt P15056)
T2 construct: purchased Eurofins Discovery (DiscoverX KINOMEscan scanMAX)
Method: as §1

EPHA3 = target: T3, EPHA3 (Homo sapiens, UniProt P29320)
T3 construct: purchased Eurofins Discovery (DiscoverX KINOMEscan scanMAX)
Method: as §1

KIT(V559D) = target: T4, KIT(V559D) (Homo sapiens, UniProt P10721, V559D)
T4 construct: purchased Eurofins Discovery (DiscoverX KINOMEscan scanMAX)
Method: as §1

SRPK2 = target: T5, SRPK2 (Homo sapiens, UniProt P78362)
T5 construct: purchased Eurofins Discovery (DiscoverX KINOMEscan scanMAX)
Method: as §1

[1] = target: T6, RSK2(Kin.Dom.1-N-terminal) (Homo sapiens, UniProt P51812)
T6 construct: RSK2(Kin.Dom.1-N-terminal); purchased Eurofins Discovery (DiscoverX KINOMEscan scanMAX)
T6 sequence (P51812 1-397 limits assumed): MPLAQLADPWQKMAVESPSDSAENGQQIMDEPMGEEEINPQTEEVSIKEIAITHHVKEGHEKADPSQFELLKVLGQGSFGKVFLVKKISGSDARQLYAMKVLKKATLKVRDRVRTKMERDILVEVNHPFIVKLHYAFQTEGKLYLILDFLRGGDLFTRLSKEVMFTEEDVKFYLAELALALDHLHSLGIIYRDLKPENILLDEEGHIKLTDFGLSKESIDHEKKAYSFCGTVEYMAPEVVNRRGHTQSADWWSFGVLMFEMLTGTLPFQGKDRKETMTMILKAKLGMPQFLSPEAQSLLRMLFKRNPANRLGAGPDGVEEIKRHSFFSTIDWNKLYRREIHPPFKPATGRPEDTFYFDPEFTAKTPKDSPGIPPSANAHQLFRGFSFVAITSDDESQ
Method: as §1

TRKA = target: T7, TRKA (Homo sapiens, UniProt P04629)
T7 construct: purchased Eurofins Discovery (DiscoverX KINOMEscan scanMAX)
T7 sequence (P04629 33-796): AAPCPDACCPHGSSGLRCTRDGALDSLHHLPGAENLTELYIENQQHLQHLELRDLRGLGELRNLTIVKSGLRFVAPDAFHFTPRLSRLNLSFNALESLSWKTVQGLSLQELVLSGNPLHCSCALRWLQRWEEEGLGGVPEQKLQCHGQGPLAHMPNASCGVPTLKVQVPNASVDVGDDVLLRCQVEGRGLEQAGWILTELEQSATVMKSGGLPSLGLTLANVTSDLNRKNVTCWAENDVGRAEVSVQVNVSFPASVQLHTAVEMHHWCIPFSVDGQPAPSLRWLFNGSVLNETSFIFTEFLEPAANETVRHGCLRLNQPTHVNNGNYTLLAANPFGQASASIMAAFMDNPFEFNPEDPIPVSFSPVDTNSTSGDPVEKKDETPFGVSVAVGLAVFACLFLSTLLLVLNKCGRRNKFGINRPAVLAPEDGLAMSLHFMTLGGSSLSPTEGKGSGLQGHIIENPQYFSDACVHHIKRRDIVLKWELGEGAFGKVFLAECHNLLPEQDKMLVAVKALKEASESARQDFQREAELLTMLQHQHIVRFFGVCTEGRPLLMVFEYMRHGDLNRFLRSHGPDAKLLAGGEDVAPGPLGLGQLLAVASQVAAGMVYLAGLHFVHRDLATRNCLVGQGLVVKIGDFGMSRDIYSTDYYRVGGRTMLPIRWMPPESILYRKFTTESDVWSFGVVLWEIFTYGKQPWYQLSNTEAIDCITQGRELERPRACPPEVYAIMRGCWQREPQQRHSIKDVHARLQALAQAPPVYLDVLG
Method: as §1

CAMK4 = target: T8, CAMK4 (Homo sapiens, UniProt Q16566)
T8 construct: purchased Eurofins Discovery (DiscoverX KINOMEscan scanMAX)
Method: as §1

[2] = target: T9, RPS6KA5(Kin.Dom.1-N-terminal) (Homo sapiens, UniProt O75582)
T9 construct: RPS6KA5(Kin.Dom.1-N-terminal); purchased Eurofins Discovery (DiscoverX KINOMEscan scanMAX)
T9 sequence (O75582 1-387 limits assumed): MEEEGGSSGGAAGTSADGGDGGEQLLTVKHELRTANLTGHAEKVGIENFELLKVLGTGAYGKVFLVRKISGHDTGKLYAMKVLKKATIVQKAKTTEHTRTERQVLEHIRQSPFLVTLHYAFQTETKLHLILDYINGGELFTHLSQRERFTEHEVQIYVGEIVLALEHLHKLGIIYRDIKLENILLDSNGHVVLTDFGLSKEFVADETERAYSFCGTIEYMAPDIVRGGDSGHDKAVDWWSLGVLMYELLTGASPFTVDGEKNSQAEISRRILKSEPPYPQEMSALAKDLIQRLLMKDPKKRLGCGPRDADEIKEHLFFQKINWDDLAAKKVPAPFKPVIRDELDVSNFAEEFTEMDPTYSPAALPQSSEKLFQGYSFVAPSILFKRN
Method: as §1

WNK3 = target: T10, WNK3 (Homo sapiens, UniProt Q9BYP7)
T10 construct: purchased Eurofins Discovery (DiscoverX KINOMEscan scanMAX)
T10 sequence (Q9BYP7 whole entry): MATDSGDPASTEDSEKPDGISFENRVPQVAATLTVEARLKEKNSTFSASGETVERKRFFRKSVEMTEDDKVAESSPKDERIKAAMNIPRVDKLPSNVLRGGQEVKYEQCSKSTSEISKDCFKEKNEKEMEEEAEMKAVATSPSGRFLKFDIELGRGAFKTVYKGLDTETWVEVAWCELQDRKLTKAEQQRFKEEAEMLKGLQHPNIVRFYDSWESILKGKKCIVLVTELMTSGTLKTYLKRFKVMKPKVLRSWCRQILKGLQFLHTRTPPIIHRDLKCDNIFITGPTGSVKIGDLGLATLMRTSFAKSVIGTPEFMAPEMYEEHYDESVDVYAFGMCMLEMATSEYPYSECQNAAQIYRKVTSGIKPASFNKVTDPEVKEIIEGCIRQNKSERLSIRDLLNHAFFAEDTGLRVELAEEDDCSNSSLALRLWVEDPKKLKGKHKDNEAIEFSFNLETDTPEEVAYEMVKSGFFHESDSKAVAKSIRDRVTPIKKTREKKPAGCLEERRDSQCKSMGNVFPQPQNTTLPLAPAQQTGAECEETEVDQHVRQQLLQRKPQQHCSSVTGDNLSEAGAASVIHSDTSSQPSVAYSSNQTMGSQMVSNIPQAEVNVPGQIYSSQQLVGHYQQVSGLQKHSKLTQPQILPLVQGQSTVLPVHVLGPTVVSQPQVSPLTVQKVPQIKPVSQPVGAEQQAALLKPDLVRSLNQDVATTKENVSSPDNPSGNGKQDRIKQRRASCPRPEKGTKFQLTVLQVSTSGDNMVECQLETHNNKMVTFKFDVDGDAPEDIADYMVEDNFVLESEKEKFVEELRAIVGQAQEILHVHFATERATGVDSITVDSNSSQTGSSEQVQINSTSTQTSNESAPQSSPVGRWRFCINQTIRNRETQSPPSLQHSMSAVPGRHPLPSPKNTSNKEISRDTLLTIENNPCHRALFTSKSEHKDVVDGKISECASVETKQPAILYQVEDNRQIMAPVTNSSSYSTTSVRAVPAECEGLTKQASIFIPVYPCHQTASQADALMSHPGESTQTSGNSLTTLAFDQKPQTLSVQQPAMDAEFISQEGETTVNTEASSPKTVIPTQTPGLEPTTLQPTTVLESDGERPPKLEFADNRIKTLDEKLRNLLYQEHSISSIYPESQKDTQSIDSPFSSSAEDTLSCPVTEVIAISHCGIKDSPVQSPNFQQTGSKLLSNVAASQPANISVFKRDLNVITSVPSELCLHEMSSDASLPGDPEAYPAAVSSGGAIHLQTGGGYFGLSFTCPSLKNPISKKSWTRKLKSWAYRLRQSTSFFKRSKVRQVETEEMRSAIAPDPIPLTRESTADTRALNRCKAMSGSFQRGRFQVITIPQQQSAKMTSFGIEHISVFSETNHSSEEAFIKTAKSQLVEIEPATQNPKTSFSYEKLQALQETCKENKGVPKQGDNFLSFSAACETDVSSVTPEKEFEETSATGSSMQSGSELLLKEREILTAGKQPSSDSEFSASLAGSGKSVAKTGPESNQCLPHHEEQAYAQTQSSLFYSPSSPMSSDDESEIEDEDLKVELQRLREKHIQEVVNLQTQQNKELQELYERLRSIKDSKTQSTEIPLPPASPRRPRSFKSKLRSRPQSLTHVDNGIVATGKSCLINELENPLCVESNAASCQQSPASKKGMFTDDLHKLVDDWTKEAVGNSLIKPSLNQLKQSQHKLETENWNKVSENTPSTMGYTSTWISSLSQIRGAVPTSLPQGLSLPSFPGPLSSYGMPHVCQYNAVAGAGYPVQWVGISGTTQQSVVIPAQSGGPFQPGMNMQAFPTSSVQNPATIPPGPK
Method: as §1

ROS1 = target: T11, ROS1 (Homo sapiens, UniProt P08922)
T11 construct: purchased Eurofins Discovery (DiscoverX KINOMEscan scanMAX)
Method: as §1

STK16 = target: T12, STK16 (Homo sapiens, UniProt O75716)
T12 construct: purchased Eurofins Discovery (DiscoverX KINOMEscan scanMAX)
Method: as §1

TRPM6 = target: T13, TRPM6 (Homo sapiens, UniProt Q9BX84)
T13 construct: purchased Eurofins Discovery (DiscoverX KINOMEscan scanMAX)
Method: as §1

NEK7 = target: T14, NEK7 (Homo sapiens, UniProt Q8TDX7)
T14 construct: purchased Eurofins Discovery (DiscoverX KINOMEscan scanMAX)
Method: as §1

PCTK2 = target: T15, PCTK2 (Homo sapiens, UniProt Q00537)
T15 construct: purchased Eurofins Discovery (DiscoverX KINOMEscan scanMAX)
Method: as §1

BRK = target: T16, BRK (Homo sapiens, UniProt Q13882)
T16 construct: purchased Eurofins Discovery (DiscoverX KINOMEscan scanMAX)
Method: as §1

ERK4 = target: T17, ERK4 (Homo sapiens, UniProt P31152)
T17 construct: purchased Eurofins Discovery (DiscoverX KINOMEscan scanMAX)
Method: as §1

PKN2 = target: T18, PKN2 (Homo sapiens, UniProt Q16513)
T18 construct: purchased Eurofins Discovery (DiscoverX KINOMEscan scanMAX)
Method: as §1

FGFR3 = target: T19, FGFR3 (Homo sapiens, UniProt P22607)
T19 construct: purchased Eurofins Discovery (DiscoverX KINOMEscan scanMAX)
Method: as §1

ERK5 = target: T20, ERK5 (Homo sapiens, UniProt Q13164)
T20 construct: purchased Eurofins Discovery (DiscoverX KINOMEscan scanMAX)
Method: as §1

BRSK1 = target: T21, BRSK1 (Homo sapiens, UniProt Q8TDC3)
T21 construct: purchased Eurofins Discovery (DiscoverX KINOMEscan scanMAX)
Method: as §1

LYN = target: T22, LYN (Homo sapiens, UniProt P07948)
T22 construct: purchased Eurofins Discovery (DiscoverX KINOMEscan scanMAX)
T22 sequence (P07948 whole entry): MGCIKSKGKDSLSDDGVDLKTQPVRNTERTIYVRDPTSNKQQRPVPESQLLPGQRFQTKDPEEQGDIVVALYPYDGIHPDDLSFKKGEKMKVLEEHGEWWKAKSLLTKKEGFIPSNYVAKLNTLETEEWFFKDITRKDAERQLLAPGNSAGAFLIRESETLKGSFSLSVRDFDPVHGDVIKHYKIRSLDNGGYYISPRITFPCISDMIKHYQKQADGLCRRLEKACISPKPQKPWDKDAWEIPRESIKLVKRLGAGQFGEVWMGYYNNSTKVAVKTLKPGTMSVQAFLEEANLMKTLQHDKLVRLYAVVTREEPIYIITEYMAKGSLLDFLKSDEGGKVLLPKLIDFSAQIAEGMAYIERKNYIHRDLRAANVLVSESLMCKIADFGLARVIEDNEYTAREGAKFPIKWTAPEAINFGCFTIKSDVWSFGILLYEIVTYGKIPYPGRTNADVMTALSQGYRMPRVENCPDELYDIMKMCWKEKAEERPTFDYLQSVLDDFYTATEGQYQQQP
Method: as §1

PIP5K1A = target: T23, PIP5K1A (Homo sapiens, UniProt Q99755)
T23 construct: purchased Eurofins Discovery (DiscoverX KINOMEscan scanMAX)
Method: as §1

TIE1 = target: T24, TIE1 (Homo sapiens, UniProt P35590)
T24 construct: purchased Eurofins Discovery (DiscoverX KINOMEscan scanMAX)
Method: as §1

ASK1 = target: T25, ASK1 (Homo sapiens, UniProt Q99683)
T25 construct: purchased Eurofins Discovery (DiscoverX KINOMEscan scanMAX)
Method: as §1

FER = target: T26, FER (Homo sapiens, UniProt P16591)
T26 construct: purchased Eurofins Discovery (DiscoverX KINOMEscan scanMAX)
Method: as §1

RIPK2 = target: T27, RIPK2 (Homo sapiens, UniProt O43353)
T27 construct: purchased Eurofins Discovery (DiscoverX KINOMEscan scanMAX)
Method: as §1

CSNK1A1L = target: T28, CSNK1A1L (Homo sapiens, UniProt Q8N752)
T28 construct: purchased Eurofins Discovery (DiscoverX KINOMEscan scanMAX)
T28 sequence (Q8N752 whole entry): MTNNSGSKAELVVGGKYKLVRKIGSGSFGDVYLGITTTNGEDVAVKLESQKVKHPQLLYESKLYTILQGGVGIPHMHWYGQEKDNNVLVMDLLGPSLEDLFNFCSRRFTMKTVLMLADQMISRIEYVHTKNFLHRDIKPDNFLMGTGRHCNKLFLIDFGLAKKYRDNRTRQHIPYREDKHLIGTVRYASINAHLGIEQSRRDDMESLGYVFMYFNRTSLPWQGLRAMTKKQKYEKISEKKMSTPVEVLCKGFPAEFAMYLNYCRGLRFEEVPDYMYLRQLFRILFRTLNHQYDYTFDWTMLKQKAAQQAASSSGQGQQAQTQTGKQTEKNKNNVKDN
Method: as §1

AKT1 = target: T29, AKT1 (Homo sapiens, UniProt P31749)
T29 construct: purchased Eurofins Discovery (DiscoverX KINOMEscan scanMAX)
Method: as §1

MLK2 = target: T30, MLK2 (Homo sapiens, UniProt Q02779)
T30 construct: purchased Eurofins Discovery (DiscoverX KINOMEscan scanMAX)
Method: as §1

AMPK-alpha2 = target: T31, AMPK-alpha2 (Homo sapiens, UniProt P54646)
T31 construct: purchased Eurofins Discovery (DiscoverX KINOMEscan scanMAX)
Method: as §1

TLK2 = target: T32, TLK2 (Homo sapiens, UniProt Q86UE8)
T32 construct: purchased Eurofins Discovery (DiscoverX KINOMEscan scanMAX)
T32 sequence (Q86UE8 whole entry): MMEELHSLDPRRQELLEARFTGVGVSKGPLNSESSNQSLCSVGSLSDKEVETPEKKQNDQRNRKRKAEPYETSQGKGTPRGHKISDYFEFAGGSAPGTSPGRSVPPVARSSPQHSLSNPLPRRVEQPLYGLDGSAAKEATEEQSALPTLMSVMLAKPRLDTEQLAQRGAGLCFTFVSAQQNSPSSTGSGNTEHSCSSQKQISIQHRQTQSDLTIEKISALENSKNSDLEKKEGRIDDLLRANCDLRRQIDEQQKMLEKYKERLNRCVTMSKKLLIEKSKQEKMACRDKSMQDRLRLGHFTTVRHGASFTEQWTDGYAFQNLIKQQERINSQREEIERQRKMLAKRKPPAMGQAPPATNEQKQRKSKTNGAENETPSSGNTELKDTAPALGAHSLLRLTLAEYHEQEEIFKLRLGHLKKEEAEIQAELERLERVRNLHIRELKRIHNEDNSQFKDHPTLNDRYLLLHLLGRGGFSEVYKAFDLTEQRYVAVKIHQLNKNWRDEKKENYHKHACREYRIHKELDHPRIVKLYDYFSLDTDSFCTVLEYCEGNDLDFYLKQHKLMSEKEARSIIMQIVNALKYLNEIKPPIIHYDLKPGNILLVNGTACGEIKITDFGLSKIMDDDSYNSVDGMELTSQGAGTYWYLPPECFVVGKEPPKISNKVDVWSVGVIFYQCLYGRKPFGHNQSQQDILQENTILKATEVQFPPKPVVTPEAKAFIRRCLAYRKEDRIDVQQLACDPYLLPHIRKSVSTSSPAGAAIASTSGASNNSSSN
Method: as §1

MLCK = target: T33, MLCK (Homo sapiens, UniProt Q32MK0)
T33 construct: purchased Eurofins Discovery (DiscoverX KINOMEscan scanMAX)
Method: as §1

Cc1cc(Nc2ccc(F)c(CC3(C(=O)N4CCC(F)(CN5CCN(c6ccc(N7CCC(=O)NC7=O)cn6)CC5)CC4)CCN(Cc4cccc(Cl)c4F)CC3)n2)n[nH]1 [SK5527]
remaining binding at 0.1 µM (PKAC-beta; 100 nM): 90% | remaining binding at 1 µM (PKAC-beta; 1000 nM): 100% | remaining binding at 0.1 µM (BRAF; 100 nM): 100% | remaining binding at 1 µM (BRAF; 1000 nM): 100% | remaining binding at 0.1 µM (EPHA3; 100 nM): 99% | remaining binding at 1 µM (EPHA3; 1000 nM): 71% | remaining binding at 0.1 µM (KIT(V559D); 100 nM): 100% | remaining binding at 1 µM (KIT(V559D); 1000 nM): 100% | remaining binding at 0.1 µM (SRPK2; 100 nM): 93% | remaining binding at 1 µM (SRPK2; 1000 nM): 79% | remaining binding at 0.1 µM ([1]; 100 nM): 80% | remaining binding at 1 µM ([1]; 1000 nM): 68% | remaining binding at 0.1 µM (TRKA; 100 nM): 32% | remaining binding at 1 µM (TRKA; 1000 nM): 8.3% | remaining binding at 0.1 µM (CAMK4; 100 nM): 100% | remaining binding at 1 µM (CAMK4; 1000 nM): 100% | remaining binding at 0.1 µM ([2]; 100 nM): 95% | remaining binding at 1 µM ([2]; 1000 nM): 100% | remaining binding at 0.1 µM (WNK3; 100 nM): 82% | remaining binding at 1 µM (WNK3; 1000 nM): 71% | remaining binding at 0.1 µM (ROS1; 100 nM): 61% | remaining binding at 1 µM (ROS1; 1000 nM): 16% | remaining binding at 0.1 µM (STK16; 100 nM): 100% | remaining binding at 1 µM (STK16; 1000 nM): 69% | remaining binding at 0.1 µM (TRPM6; 100 nM): 100% | remaining binding at 1 µM (TRPM6; 1000 nM): 100% | remaining binding at 0.1 µM (NEK7; 100 nM): 74% | remaining binding at 1 µM (NEK7; 1000 nM): 73% | remaining binding at 0.1 µM (PCTK2; 100 nM): 100% | remaining binding at 1 µM (PCTK2; 1000 nM): 100% | remaining binding at 0.1 µM (BRK; 100 nM): 92% | remaining binding at 1 µM (BRK; 1000 nM): 88% | remaining binding at 0.1 µM (ERK4; 100 nM): 97% | remaining binding at 1 µM (ERK4; 1000 nM): 98% | remaining binding at 0.1 µM (PKN2; 100 nM): 81% | remaining binding at 1 µM (PKN2; 1000 nM): 81% | remaining binding at 0.1 µM (FGFR3; 100 nM): 96% | remaining binding at 1 µM (FGFR3; 1000 nM): 84% | remaining binding at 0.1 µM (ERK5; 100 nM): 100% | remaining binding at 1 µM (ERK5; 1000 nM): 93% | remaining binding at 0.1 µM (BRSK1; 100 nM): 100% | remaining binding at 1 µM (BRSK1; 1000 nM): 98% | remaining binding at 0.1 µM (LYN; 100 nM): 78% | remaining binding at 1 µM (LYN; 1000 nM): 94% | remaining binding at 0.1 µM (PIP5K1A; 100 nM): 70% | remaining binding at 1 µM (PIP5K1A; 1000 nM): 76% | remaining binding at 0.1 µM (TIE1; 100 nM): 89% | remaining binding at 1 µM (TIE1; 1000 nM): 68% | remaining binding at 0.1 µM (ASK1; 100 nM): 91% | remaining binding at 1 µM (ASK1; 1000 nM): 92% | remaining binding at 0.1 µM (FER; 100 nM): 84% | remaining binding at 1 µM (FER; 1000 nM): 100% | remaining binding at 0.1 µM (RIPK2; 100 nM): 80% | remaining binding at 1 µM (RIPK2; 1000 nM): 88% | remaining binding at 0.1 µM (CSNK1A1L; 100 nM): 91% | remaining binding at 1 µM (CSNK1A1L; 1000 nM): 87% | remaining binding at 0.1 µM (AKT1; 100 nM): 78% | remaining binding at 1 µM (AKT1; 1000 nM): 100% | remaining binding at 0.1 µM (MLK2; 100 nM): 100% | remaining binding at 1 µM (MLK2; 1000 nM): 100% | remaining binding at 0.1 µM (AMPK-alpha2; 100 nM): 93% | remaining binding at 1 µM (AMPK-alpha2; 1000 nM): 100% | remaining binding at 0.1 µM (TLK2; 100 nM): 100% | remaining binding at 1 µM (TLK2; 1000 nM): 94% | remaining binding at 0.1 µM (MLCK; 100 nM): 100% | remaining binding at 1 µM (MLCK; 1000 nM): 0%
